Publication PMC5218480 (PLoS ONE, 2017)

System: MV-4-11 cells
Assay: Gene expression microarray analysis (Affymetrix PrimeView) and GSEA
Type: cell-based, human
Design: RFU PODN (11730768_x_at) / Fold change /veh PODN (11730768_x_at) / RFU LINC00158 (11744669_a_at) / Fold change /veh LINC00158 (11744669_a_at) / RFU DUSP10 (11751237_a_at) / Fold change /veh DUSP10 (11751237_a_at) / RFU ID3 (11757404_x_at) / Fold change /veh ID3 (11757404_x_at) / RFU PLEKHG5 (11737974_s_at) / Fold change /veh PLEKHG5 (11737974_s_at) / RFU LRRC4B (11730491_at) / Fold change /veh LRRC4B (11730491_at) / RFU GIMAP4 (11747438_a_at) / Fold change /veh GIMAP4 (11747438_a_at) / RFU KRT8 (11758183_x_at) / Fold change /veh KRT8 (11758183_x_at) / RFU CNN1 (11734310_a_at) / Fold change /veh CNN1 (11734310_a_at) / RFU VPS37D (11726825_at) / Fold change /veh VPS37D (11726825_at) / RFU C10orf10 (11716522_x_at) / Fold change /veh C10orf10 (11716522_x_at) / RFU KIR2DL2 /// KIR2DL4 /// KIR2DL5A /// KIR2DL5B /// KIR2DS1 /// KIR2DS2 /// KIR2DS3 /// KIR2DS4 /// KIR3DL3 /// KIR3DL3 /// KIR3DS1 (11738374_at) / Fold change /veh KIR2DL2 /// KIR2DL4 /// KIR2DL5A /// KIR2DL5B /// KIR2DS1 /// KIR2DS2 /// KIR2DS3 /// KIR2DS4 /// KIR3DL3 /// KIR3DL3 /// KIR3DS1 (11738374_at) / RFU C1QL1 (11718748_at) / Fold change /veh C1QL1 (11718748_at) / RFU TMPRSS4 (11747572_a_at) / Fold change /veh TMPRSS4 (11747572_a_at) / RFU HAMP (11756126_x_at) / Fold change /veh HAMP (11756126_x_at) / RFU RNFT2 (11725882_a_at) / Fold change /veh RNFT2 (11725882_a_at) / RFU NR4A2 (11747474_a_at) / Fold change /veh NR4A2 (11747474_a_at) / RFU ABCC12 (11746883_a_at) / Fold change /veh ABCC12 (11746883_a_at) / RFU TMEM136 (11760407_x_at) / Fold change /veh TMEM136 (11760407_x_at) / RFU CLDN22 /// WWC2 (11732394_at) / Fold change /veh CLDN22 /// WWC2 (11732394_at) / RFU HLA-DPB1 (11760878_x_at) / Fold change /veh HLA-DPB1 (11760878_x_at) / RFU SPINT1 (11716480_a_at) / Fold change /veh SPINT1 (11716480_a_at) / RFU GAP43 (11754022_s_at) / Fold change /veh GAP43 (11754022_s_at) / RFU A4GNT (11735810_at) / Fold change /veh A4GNT (11735810_at) / RFU PRB3 (11715151_x_at) / Fold change /veh PRB3 (11715151_x_at) / RFU TUBB4B (11761932_at) / Fold change /veh TUBB4B (11761932_at) / RFU CAPN14 (11732068_a_at) / Fold change /veh CAPN14 (11732068_a_at) / RFU TMCC2 (11721928_a_at) / Fold change /veh TMCC2 (11721928_a_at) / RFU IRGQ (11745062_a_at) / Fold change /veh IRGQ (11745062_a_at) / RFU FAM174B (11720279_a_at) / Fold change /veh FAM174B (11720279_a_at) / RFU TMPRSS4 (11748680_a_at) / Fold change /veh TMPRSS4 (11748680_a_at) / RFU FAM212B (11763350_a_at) / Fold change /veh FAM212B (11763350_a_at) / RFU PLEKHG5 (11743358_a_at) / Fold change /veh PLEKHG5 (11743358_a_at) / RFU ZSCAN30 (11745921_a_at) / Fold change /veh ZSCAN30 (11745921_a_at) / RFU CMKLR1 (11741424_a_at) / Fold change /veh CMKLR1 (11741424_a_at) / RFU LOC101060620 /// MAPK8IP1 (11723275_at) / Fold change /veh LOC101060620 /// MAPK8IP1 (11723275_at) / RFU SPTSSB (11747773_x_at) / Fold change /veh SPTSSB (11747773_x_at) / RFU PRSS12 (11739890_at) / Fold change /veh PRSS12 (11739890_at) / RFU BIN1 (11741810_x_at) / Fold change /veh BIN1 (11741810_x_at) / RFU WNT11 (11732464_a_at) / Fold change /veh WNT11 (11732464_a_at) / RFU C10orf10 (11716521_a_at) / Fold change /veh C10orf10 (11716521_a_at) / RFU C5orf56 (11738089_at) / Fold change /veh C5orf56 (11738089_at) / RFU CYB561 (11721691_x_at) / Fold change /veh CYB561 (11721691_x_at) / RFU ANKRD19P (11752326_a_at) / Fold change /veh ANKRD19P (11752326_a_at) / RFU OR2T12 /// OR2T33 /// OR2T8 (11738714_s_at) / Fold change /veh OR2T12 /// OR2T33 /// OR2T8 (11738714_s_at) / RFU VCAN (11748164_a_at) / Fold change /veh VCAN (11748164_a_at) / RFU JSRP1 (11732532_at) / Fold change /veh JSRP1 (11732532_at) / RFU KRTAP10-11 (11738290_x_at) / Fold change /veh KRTAP10-11 (11738290_x_at) / RFU MYO3A (11730013_a_at) / Fold change /veh MYO3A (11730013_a_at) / RFU EBF3 (11725865_a_at) / Fold change /veh EBF3 (11725865_a_at) / RFU CAMK2N1 (11719241_x_at) / Fold change /veh CAMK2N1 (11719241_x_at) / RFU C5orf56 (11738088_a_at) / Fold change /veh C5orf56 (11738088_a_at) / RFU OLFML3 (11715873_a_at) / Fold change /veh OLFML3 (11715873_a_at) / RFU LOC100653217 /// NTM (11731650_a_at) / Fold change /veh LOC100653217 /// NTM (11731650_a_at) / RFU MAPK11 (11762145_a_at) / Fold change /veh MAPK11 (11762145_a_at) / RFU FIZ1 (11724087_x_at) / Fold change /veh FIZ1 (11724087_x_at) / RFU OASL (11726364_x_at) / Fold change /veh OASL (11726364_x_at) / RFU SOX15 (11748057_x_at) / Fold change /veh SOX15 (11748057_x_at) / RFU CD79A (11719716_a_at) / Fold change /veh CD79A (11719716_a_at) / RFU HIST1H1D (11736915_at) / Fold change /veh HIST1H1D (11736915_at) / RFU CASKIN2 (11723855_a_at) / Fold change /veh CASKIN2 (11723855_a_at) / RFU LOC730098 (11760151_x_at) / Fold change /veh LOC730098 (11760151_x_at) / RFU OR4N2 (11742367_at) / Fold change /veh OR4N2 (11742367_at) / RFU PRRT2 (11749266_a_at) / Fold change /veh PRRT2 (11749266_a_at) / RFU SNX32 (11753110_a_at) / Fold change /veh SNX32 (11753110_a_at) / RFU CDHR5 (11726645_a_at) / Fold change /veh CDHR5 (11726645_a_at) / RFU RCAN1 (11760418_a_at) / Fold change /veh RCAN1 (11760418_a_at) / RFU FAM167A (11723789_a_at) / Fold change /veh FAM167A (11723789_a_at) / RFU FAM26E (11764081_at) / Fold change /veh FAM26E (11764081_at) / RFU ISYNA1 (11749810_s_at) / Fold change /veh ISYNA1 (11749810_s_at) / RFU ACY1 (11761880_at) / Fold change /veh ACY1 (11761880_at) / RFU 11764098_at / Fold change /veh 11764098_at / RFU SAMD14 (11745864_x_at) / Fold change /veh SAMD14 (11745864_x_at) / RFU NPB (11741838_a_at) / Fold change /veh NPB (11741838_a_at) / RFU TMPRSS6 (11731388_a_at) / Fold change /veh TMPRSS6 (11731388_a_at) / RFU KRTAP10-2 (11738614_at) / Fold change /veh KRTAP10-2 (11738614_at) / RFU ARHGAP8 /// PRR5-ARHGAP8 (11727945_x_at) / Fold change /veh ARHGAP8 /// PRR5-ARHGAP8 (11727945_x_at) / RFU KRTAP5-7 /// NADSYN1 (11734609_at) / Fold change /veh KRTAP5-7 /// NADSYN1 (11734609_at) / RFU RASL12 (11751679_a_at) / Fold change /veh RASL12 (11751679_a_at) / RFU CDKN2B (11736163_a_at) / Fold change /veh CDKN2B (11736163_a_at) / RFU PRF1 (11729649_at) / Fold change /veh PRF1 (11729649_at) / RFU, ZNF638 /// ZNF638-IT1 / Fold change vs veh, ZNF638 /// ZNF638-IT1 / RFU, PANK3 / Fold change vs veh, PANK3 / RFU, SH3YL1 / Fold change vs veh, SH3YL1 / RFU, ZEB2 / Fold change vs veh, ZEB2 / RFU, NRIP1 / Fold change vs veh, NRIP1 / RFU, PTTG1IP / Fold change vs veh, PTTG1IP / RFU, CAPN2 / Fold change vs veh, CAPN2 / RFU, MED14 / Fold change vs veh, MED14 / RFU, SNORA58 / Fold change vs veh, SNORA58 / RFU, C1orf63 / Fold change vs veh, C1orf63 / RFU, LRRFIP1 / Fold change vs veh, LRRFIP1 / RFU, NDUFAF7 / Fold change vs veh, NDUFAF7 / RFU, SLC12A2 / Fold change vs veh, SLC12A2 / RFU, IBTK / Fold change vs veh, IBTK / RFU, ESF1 / Fold change vs veh, ESF1 / Fold change vs veh, TMEM50B / RFU, TAOK1 / Fold change vs veh, TAOK1 / RFU, ACBD3 / Fold change vs veh, ACBD3 / RFU, TMA16 / Fold change vs veh, TMA16 / RFU, RWDD3 / Fold change vs veh, RWDD3 / RFU, BCAT1 / Fold change vs veh, BCAT1 / RFU, EDEM3 / Fold change vs veh, EDEM3 / RFU, TMEM33 / Fold change vs veh, TMEM33 / RFU, WDR75 / Fold change vs veh, WDR75 / RFU, AHCTF1 / Fold change vs veh, AHCTF1 / RFU, TFRC / Fold change vs veh, TFRC / RFU, ZDHHC17 / Fold change vs veh, ZDHHC17 / RFU, NOM1 / Fold change vs veh, NOM1 / RFU, ARL8B / Fold change vs veh, ARL8B / RFU, ZBTB11 / Fold change vs veh, ZBTB11 / RFU, TAMM41 / Fold change vs veh, TAMM41 / RFU, KIAA1704 /// LOC100996395 / Fold change vs veh, KIAA1704 /// LOC100996395 / RFU, ING1 / Fold change vs veh, ING1 / RFU, TRMT61B / Fold change vs veh, TRMT61B / RFU, FUBP3 / Fold change vs veh, FUBP3 / RFU, TP53 / Fold change vs veh, TP53 / RFU, TNKS2 / Fold change vs veh, TNKS2 / RFU, ZFP14 / Fold change vs veh, ZFP14 / RFU, ACTR2 / Fold change vs veh, ACTR2 / RFU, PPP3R1 / Fold change vs veh, PPP3R1 / RFU, PIK3R1 / Fold change vs veh, PIK3R1 / RFU, HNRNPA1 / Fold change vs veh, HNRNPA1 / RFU, RNF170 / Fold change vs veh, RNF170 / RFU, ZNF28 / Fold change vs veh, ZNF28 / RFU, RNGTT / Fold change vs veh, RNGTT / RFU, OGT / Fold change vs veh, OGT / RFU, BRD1 / Fold change vs veh, BRD1 / RFU, MARS / Fold change vs veh, MARS / RFU, ZNF655 / Fold change vs veh, ZNF655 / RFU, FAHD1 / Fold change vs veh, FAHD1 / RFU, BDP1 / Fold change vs veh, BDP1 / RFU, LRRCC1 / Fold change vs veh, LRRCC1 / RFU, ARID1A / Fold change vs veh, ARID1A / RFU, ZNF146 / Fold change vs veh, ZNF146 / RFU, ZNF330 / Fold change vs veh, ZNF330 / RFU, GPN3 / Fold change vs veh, GPN3 / RFU, C9orf123 / Fold change vs veh, C9orf123 / RFU, N4BP2L2 / Fold change vs veh, N4BP2L2 / RFU, ARFIP1 / Fold change vs veh, ARFIP1 / RFU, FAM179B / Fold change vs veh, FAM179B / RFU, BCL10 / Fold change vs veh, BCL10 / RFU, UHRF1BP1L / Fold change vs veh, UHRF1BP1L / RFU, BET1 / Fold change vs veh, BET1 / RFU, CNOT2 / Fold change vs veh, CNOT2 / RFU, ZNF268 / Fold change vs veh, ZNF268 / Fold change vs veh, ZNF507 / RFU, DGCR2 / Fold change vs veh, DGCR2 / RFU, WDSUB1 / Fold change vs veh, WDSUB1 / Fold change vs veh, HSP90B1 /// MIR3652 / RFU, ADSS / Fold change vs veh, ADSS / RFU, GK / Fold change vs veh, GK / RFU, ZNF148 / Fold change vs veh, ZNF148 / RFU, TAF9 / Fold change vs veh, TAF9 / RFU, SLC1A5 / Fold change vs veh, SLC1A5 / RFU, SLMO2 / Fold change vs veh, SLMO2 / RFU, ABCC4 / Fold change vs veh, ABCC4 / RFU, LOC101060439 /// RAP1B / Fold change vs veh, LOC101060439 /// RAP1B / RFU, RFX7 / Fold change vs veh, RFX7 / RFU, GTPBP10 / Fold change vs veh, GTPBP10 / RFU, CNEP1R1 / Fold change vs veh, CNEP1R1 / RFU, BIVM-ERCC5 /// ERCC5 / Fold change vs veh, BIVM-ERCC5 /// ERCC5 / RFU, ILF3 / Fold change vs veh, ILF3 / RFU 11762660_at / Fold change /veh 11762660_at / RFU VCAN (11757783_s_at) / Fold change /veh VCAN (11757783_s_at) / RFU DDX43 (11728927_at) / Fold change /veh DDX43 (11728927_at) / RFU KRT8 (11758188_x_at) / Fold change /veh KRT8 (11758188_x_at) / RFU NKD1 (11759106_at) / Fold change /veh NKD1 (11759106_at) / RFU SRD5A1 (11742802_a_at) / Fold change /veh SRD5A1 (11742802_a_at) / RFU TPSAB1 /// TPSB2 (11721975_s_at) / Fold change /veh TPSAB1 /// TPSB2 (11721975_s_at) / RFU GSTM3 (11746129_a_at) / Fold change /veh GSTM3 (11746129_a_at) / RFU IL23R (11737362_x_at) / Fold change /veh IL23R (11737362_x_at) / RFU TMEM51 (11727254_a_at) / Fold change /veh TMEM51 (11727254_a_at) / RFU PIWIL2 (11732686_x_at) / Fold change /veh PIWIL2 (11732686_x_at) / RFU ORM1 (11744905_x_at) / Fold change /veh ORM1 (11744905_x_at) / RFU CCDC152 (11743942_at) / Fold change /veh CCDC152 (11743942_at) / RFU ECM1 (11717891_a_at) / Fold change /veh ECM1 (11717891_a_at) / RFU IL23R (11748794_a_at) / Fold change /veh IL23R (11748794_a_at) / RFU TNFAIP8L3 (11732012_x_at) / Fold change /veh TNFAIP8L3 (11732012_x_at) / RFU MBOAT4 (11741988_at) / Fold change /veh MBOAT4 (11741988_at) / RFU 11764193_at / Fold change /veh 11764193_at / RFU TMEM53 (11763286_at) / Fold change /veh TMEM53 (11763286_at) / RFU MAGEB2 (11727129_at) / Fold change /veh MAGEB2 (11727129_at) / RFU TMEM200A (11744735_a_at) / Fold change /veh TMEM200A (11744735_a_at) / RFU CCDC152 (11751479_a_at) / Fold change /veh CCDC152 (11751479_a_at) / RFU FAM211A (11726209_a_at) / Fold change /veh FAM211A (11726209_a_at) / RFU RGS16 (11746705_a_at) / Fold change /veh RGS16 (11746705_a_at) / RFU VCAN (11755009_s_at) / Fold change /veh VCAN (11755009_s_at) / RFU RHOB (11743442_s_at) / Fold change /veh RHOB (11743442_s_at) / RFU RGS16 (11720943_a_at) / Fold change /veh RGS16 (11720943_a_at) / RFU RGS16 (11720944_at) / Fold change /veh RGS16 (11720944_at) / RFU, VPS4B / Fold change vs veh, VPS4B / RFU, CREB1 / Fold change vs veh, CREB1 / RFU, DNAJC13 / Fold change vs veh, DNAJC13 / RFU, GNAQ / Fold change vs veh, GNAQ / RFU, CDK5R1 / Fold change vs veh, CDK5R1 / RFU, ZRANB3 / Fold change vs veh, ZRANB3 / RFU, CUL4A / Fold change vs veh, CUL4A / RFU, CCNY / Fold change vs veh, CCNY / RFU, UFL1 / Fold change vs veh, UFL1 / RFU, COG3 / Fold change vs veh, COG3 / RFU, DIAPH2 / Fold change vs veh, DIAPH2 / RFU, SKA2 / Fold change vs veh, SKA2 / RFU, AFF3 / Fold change vs veh, AFF3 / RFU, LMF1 / Fold change vs veh, LMF1 / RFU, IPO11 / Fold change vs veh, IPO11 / RFU, DFFB / Fold change vs veh, DFFB / RFU, FOXP1 / Fold change vs veh, FOXP1 / RFU, CARD8 / Fold change vs veh, CARD8 / RFU, STRN3 / Fold change vs veh, STRN3 / RFU, ADK / Fold change vs veh, ADK / RFU, RASSF2 / Fold change vs veh, RASSF2 / RFU, WIPF1 / Fold change vs veh, WIPF1 / RFU, LARP1B / Fold change vs veh, LARP1B / RFU, RASA1 / Fold change vs veh, RASA1 / RFU, RB1 / Fold change vs veh, RB1 / RFU, PPFIA1 / Fold change vs veh, PPFIA1 / RFU, MAT2A / Fold change vs veh, MAT2A / RFU, CCT5 / Fold change vs veh, CCT5 / RFU, WDR92 / Fold change vs veh, WDR92 / RFU, CUX1 / Fold change vs veh, CUX1 / RFU, TTC7A / Fold change vs veh, TTC7A / RFU, TMEM135 / Fold change vs veh, TMEM135 / RFU, DEPTOR / Fold change vs veh, DEPTOR / RFU, CPM / Fold change vs veh, CPM / RFU, DNAJB6 / Fold change vs veh, DNAJB6 / RFU, CACNA2D3 / Fold change vs veh, CACNA2D3 / RFU, DTX4 / Fold change vs veh, DTX4 / RFU, TFCP2 / Fold change vs veh, TFCP2 / RFU, GMCL1 /// GMCL1P1 / Fold change vs veh, GMCL1 /// GMCL1P1 / RFU, AEBP2 / Fold change vs veh, AEBP2 / RFU, SNHG1 /// SNORD22 /// SNORD25 /// SNORD26 /// SNORD27 /// SNORD28 /// SNORD29 /// SNORD31 / Fold change vs veh, SNHG1 /// SNORD22 /// SNORD25 /// SNORD26 /// SNORD27 /// SNORD28 /// SNORD29 /// SNORD31 / Fold change (Aza/veh), C12orf56 (ProbeSet 11735607_a_at) / Fold change (ACY-1035/veh), C12orf56 (ProbeSet 11735607_a_at) / Fold change (Aza/veh), FGFR1OP (ProbeSet 11751329_s_at) / Fold change (ACY-1035/veh), FGFR1OP (ProbeSet 11751329_s_at) / Fold change (Aza/veh), VPS36 (ProbeSet 11739960_a_at) / Fold change (ACY-1035/veh), VPS36 (ProbeSet 11739960_a_at) / RFU SYPL1 (11715823_x_at) / Fold change /veh SYPL1 (11715823_x_at) / RFU IGFBP7 (11715501_s_at) / Fold change /veh IGFBP7 (11715501_s_at) / RFU REEP3 (11722064_at) / Fold change /veh REEP3 (11722064_at) / RFU IGLL1 (11728026_x_at) / Fold change /veh IGLL1 (11728026_x_at): dose or concentration left out as unconfirmed
Conditions: MV-4-11 cells, 48 hours

In the case of `Nc1ncn([C@@H]2O[C@H](CO)[C@@H](O)[C@H]2O)c(=O)n1` [azacitidine], the “RFU DDX43 (11728927_at)” value is reported as 12.02 RFU.
